According to patent publication US20030215462A1, “Use of UGT inhibitors to increase bioavailability” (priority 2001, published 2003):
“And” between values parts separate entries of the source, which are not always exact repeats. Identical values can stand only once. Like-named read-outs stand apart in the source and are kept apart here.

Tests used:
Type in all cases: biochemical
[1] = test system: T1, UGT enzymes of human liver microsomes; experiment: Inhibition of 7-HFC glucuronidation in human liver microsomes; conditions: for % of control metabolism (SD, n = 3), 7-HFC glucuronidation: 7-HFC 50 μM, human liver microsomes 100 μg/ml, 15 min
T1 construct: percentage of control metabolism, 7-HFC glucuronidation; percentage of control metabolism, 7-HFC glucuronidation

[2] = test system: UGT enzymes of human liver microsomes; experiment: Inhibition of raloxifene glucuronidation (G1, G2) in human liver microsomes
Source text: Compounds were eluted using a binary solvent gradient system. […] Solvent B was methanol. […] Detection was at 280 nm.

[3] = biological target: T2, UGT enzymes of human liver microsomes (Homo sapiens, UniProt P16662); experiment: Inhibition of zidovudine glucuronidation in human liver microsomes; conditions: liver lot 062101
T2 construct: residual metabolism (percentage of control), zidovudine glucuronidation; other: liver lot 062101; residual metabolism (percentage of control), zidovudine glucuronidation; residual metabolism (percentage of control)
T2 sequence (P16662 1-529): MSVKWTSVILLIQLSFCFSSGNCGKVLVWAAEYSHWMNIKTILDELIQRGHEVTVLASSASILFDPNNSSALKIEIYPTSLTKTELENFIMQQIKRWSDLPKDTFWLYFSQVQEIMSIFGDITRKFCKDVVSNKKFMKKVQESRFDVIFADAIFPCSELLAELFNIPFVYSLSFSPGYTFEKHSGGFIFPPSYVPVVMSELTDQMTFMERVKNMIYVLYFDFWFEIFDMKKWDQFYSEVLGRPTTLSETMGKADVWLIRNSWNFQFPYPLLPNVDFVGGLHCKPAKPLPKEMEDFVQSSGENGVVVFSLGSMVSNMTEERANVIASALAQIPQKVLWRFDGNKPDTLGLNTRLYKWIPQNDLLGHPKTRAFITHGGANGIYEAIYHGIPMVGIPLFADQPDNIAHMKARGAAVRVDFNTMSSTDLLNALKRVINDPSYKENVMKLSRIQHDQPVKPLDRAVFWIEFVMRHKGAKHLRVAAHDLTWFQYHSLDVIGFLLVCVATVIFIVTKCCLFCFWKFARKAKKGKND
Description: Compounds were eluted using a binary solvent gradient system where solvent A was dilute phosphoric acid (pH 3) and solvent B was acetonitrile.
Standardized incubations utilized 500 μM zidovudine substrate, 1 mg/ml microsomal protein, 5 mM UDPGA and a 30 min incubation time. […] Int.

[4] = G1, inhibitor 100 μM, raloxifene 50 μM, human liver microsomes 250 μg/ml, 15 min
[5] = G1, inhibitor 500 μM, raloxifene 50 μM, human liver microsomes 250 μg/ml, 15 min
[6] = G2, inhibitor 100 μM, raloxifene 50 μM, human liver microsomes 250 μg/ml, 15 min
[7] = G2, inhibitor 500 μM, raloxifene 50 μM, human liver microsomes 250 μg/ml, 15 min

Compound | percentage of control metabolism, 7-HFC glucuronidation ([1]; inhibitor 100 μM) | % of control metabolism (SD, n = 3), 7-HFC glucuronidation ([1]; inhibitor 100 μM) | percentage of control metabolism, 7-HFC glucuronidation ([1]; inhibitor 200 μM) | % of control metabolism (SD, n = 3), 7-HFC glucuronidation ([1]; inhibitor 200 μM) | percentage of control metabolism, 7-HFC glucuronidation ([1]; inhibitor 500 μM) | % of control metabolism (SD, n = 3), 7-HFC glucuronidation ([1]; inhibitor 500 μM) | residual metabolism (percentage of control), zidovudine glucuronidation ([3]; inhibitor 500 μM) | % of control metabolism (SD, n = 3), raloxifene glucuronide G1 [2, 4] | % of control metabolism (SD, n = 3), raloxifene glucuronide G1 [2, 5] | % of control metabolism (SD, n = 3), raloxifene glucuronide G2 [2, 6] | % of control metabolism (SD, n = 3), raloxifene glucuronide G2 [2, 7] | residual metabolism (percentage of control), zidovudine glucuronidation ([3]; inhibitor 1000 μM) | residual metabolism (percentage of control), zidovudine glucuronidation ([3]; inhibitor 100 μM) | residual metabolism (percentage of control), zidovudine glucuronidation ([3]; inhibitor 200 μM) | other results
Cc1cc(=O)oc2cc(O)ccc12 [4-Methylumbelliferone, reference compound] | 78 (1) % | 78 (1) % | 64 (1) % | 64 (1) % | 45 (1) % and 47 (2) % | 45 (1), % and 47 (2) % | 81 (2) % |  |  |  |  |  |  |  | % of control metabolism, raloxifene G1 [2]: 35 (3), 39 (2) % and 37 (1), 40 (1) % and 51 (1), 53 (2) % and 69 (4), 71 (8) %; % of control metabolism, raloxifene G2 [2]: 35 (3), 39 (2) % and 37 (1), 40 (1) % and 51 (1), 53 (2) % and 69 (4), 71 (8) %
COc1cc(CNC(=O)CCCC/C=C/C(C)C)ccc1O [Capsaicin] | 53 (1) % and 57 (0) % | 53 (1), % and 57 (0) % | 42 (1) % and 44 (1) % | 42 (1), % and 44 (1) % | 39 (0) % | 39 (0) % | 57 (4) % | 55 (4) % | 26 (1) % | 69 (4) % | 33 (3) % | 34 (1) % |  |  | percentage of control metabolism, 7-HFC glucuronidation ([1]; inhibitor 50 μM): 69 (1) %; % of control metabolism (SD, n = 3), 7-HFC glucuronidation ([1]; inhibitor 50 μM): 69 (1) %
Cc1ccc(C(C)C)cc1O [Carvacrol] | 79 (1) % | 79 (1) % | 63 (0) % | 63 (0) % | 31 (1) % | 31 (1) % | 50 (3) % and 45 (0) % |  |  |  |  | 20 (1) % | 94 (1) % | 75 (3) % | % of control metabolism (SD, n = 3), raloxifene glucuronide G1 [2]: 37 (1) % and 64 (1) %; % of control metabolism (SD, n = 3), raloxifene glucuronide G2 [2]: 33 (0) % and 60 (1) %
COc1cc(CNC(=O)CCCCCCC(C)C)ccc1O [Dihydrocapsaicin] | 60 (3) % | 60 (3) % | 52 (2) % | 52 (2) % | 42 (2) % | 42 (2) % | 50 (1) % | 49 (1) % | 18 (1) % | 68 (2) % | 26 (1) % | 42 (2) % |  |  | 
C[C@]12CC[C@@H]3c4ccc(O)cc4CC[C@H]3[C@@H]1CC[C@@H]2O [E2, 17-β-estradiol, reference compound] |  |  |  |  |  | 80 (2) % | 29 (1) % and 24 (2) % |  | 39 (1) % |  | 56 (2) % |  | 28 (1) % | 24 (0) % | residual metabolism (percentage of control), zidovudine glucuronidation ([3]; inhibitor 50 μM): 50 (1) %
